For 3 molecules, viability results are on record in patent US9981968B2, “Substituted pyrrolo[2,3-d]pyrimidines for the treatment of cancer and proliferative disorders” (Northwestern University, priority 2013, dated 2018).

Holding throughout (assay type): cell-based
One test deals with CCRF-CEM. In words: SRB growth assay, CCRF-CEM. The following applies: Homo sapiens, CCRF-CEM (Leukemia), 48 hours, read-out: Percent viability. The source says: (§1) Tested cell lines included, Leukemia: CCRF-CEM, HL-60(TB), MOLT-4, RPMI-8226 and SR; Non-Small Cell Lung: A549/ATCC, EKVX, HOP-62, HOP-92, NCI-H226, NCI-H23, NCI-H322M, NCI-H460 and NCI-H522; Colon: COLO 205, HCC-2998, HCT-116, HCT-15. HT29, KM12 and SW-620; CNS: SF-268, SF-295, SF-539, SNB-19, SNB-75 and U251; Melanoma: LOX IMVI, MALME-3M, M14, MDA-MB-435, SK-MEL-2, SK-MEL-28, SK-MEL-5, UACC-257 and UACC-62; Ovarian: IGR-OV1, OVCAR-3, OVCAR-4, OVCAR-5, OVCAR-8. NCI/ADR-RES and SK-OV-3; Renal: 786-0, A498, ACHN, CAKI-1, RXF 393, SN12C, TK-10 and UO-31; Prostate: DU-145 and PC-3; and Breast: MCF7, MDA-MB-231/ATCC, MDA-MB-468, HS 578T, BT-549 and T-47D.
(§2) The cells were cultured in RPMI1640 media supplemented with 10% Fetal Bovine Serum (FBS), 2 mM glutamine and with 5% CO2 and 37° C. For experiment, 5% of FBS and 50 ug/mL of gentamycin were used. Test articles were 10 μM of NUCL 381-3 or 10 μM NUCL 383-3. The positive control was 10 μM of doxorubicin.
(§3) Cells were plated in 96 well plates. The cells were plated in triplicate. Cells were plated at the densities based on NCI recommendation. Time zero cells (Tz) were fixed the following day with 50% or 80% ice cold Trichloracetic acid (TCA) and washed 5× with water. At 48 hours post addition of treatments, all remaining plates were fixed in 80% ice cold Trichloracetic acid (TCA) and washed 5× with water. After drying, one hundred microliters of 0.4% Sulphorhodamine B (SRB) in 1% acetic acid was added to each plate including the Tzero plate and incubated for 10 minutes at room temperature. After 5 additional washes with 1% acetic acid, plates were allowed to dry. One hundred microliters of Trizma base was added to each well and plates were read at 515 nm.
(§4) Percent of growth was calculated by the following formulas: [Ti/C]×100, where: Tz=absorbance readings for wells at time zero without treatment; C=absorbance readings of untreated cells (without treatment); and Ti=absorbance reading of wells with treatment.
(In SRB staining, fixed cells bind dye roughly in proportion to their protein.)

For another test, the system named is HL-60(TB). In words: SRB growth assay, HL-60(TB). The following applies: Homo sapiens, HL-60(TB) (Leukemia), 48 hours, read-out: Percent viability.
Description: as §1, §2, §3, §4

Another test has as its system RPMI-8226. In words: SRB growth assay, RPMI-8226. The following applies: Homo sapiens, RPMI-8226 (Leukemia), 48 hours, read-out: Percent viability.
Description: as §1, §2, §3, §4

The next test concerns A549. In words: SRB growth assay, A549. The following applies: Homo sapiens, A549 (Non-Small Cell Lung), 48 hours, read-out: Percent viability.
Description: as §1, §2, §3, §4

The subject of another test is EKVX. Kind of test: SRB growth assay, EKVX. The following applies: Homo sapiens, EKVX (Non-Small Cell Lung), 48 hours, read-out: Percent viability.
Description: as §1, §2, §3, §4

The test system of another test is NCI-H460. Kind of test: SRB growth assay, NCI-H460. The following applies: Homo sapiens, NCI-H460 (Non-Small Cell Lung), 48 hours, read-out: Percent viability.
Description: as §1, §2, §3, §4

The next test relates to HCC-2998. Kind of test: SRB growth assay, HCC-2998. The following applies: Homo sapiens, HCC-2998 (Colon), 48 hours, read-out: Percent viability.
Description: as §1, §2, §3, §4

The subject of a further test is HCT-15. Kind of test: SRB growth assay, HCT-15. The following applies: Homo sapiens, HCT-15 (Colon), 48 hours, read-out: Percent viability.
Description: as §1, §2, §3, §4

A further test deals with SW-620. In words: SRB growth assay, SW-620. The following applies: Homo sapiens, SW-620 (Colon), 48 hours, read-out: Percent viability.
Description: as §1, §2, §3, §4

The next test has as its system LOX IMVI. In words: SRB growth assay, LOX IMVI. The following applies: Homo sapiens, LOX IMVI (Melanoma), 48 hours, read-out: Percent viability.
Description: as §1, §2, §3, §4

A further test has as its system M14. In words: SRB growth assay, M14. The following applies: Homo sapiens, M14 (Melanoma), 48 hours, read-out: Percent viability.
Description: as §1, §2, §3, §4

The test system of a further test is MDA-MB-435. In words: SRB growth assay, MDA-MB-435. The following applies: Homo sapiens, MDA-MB-435 (Melanoma), 48 hours, read-out: Percent viability.
Description: as §1, §2, §3, §4

The next test relates to SK-MEL-28. Kind of test: SRB growth assay, SK-MEL-28. The following applies: Homo sapiens, SK-MEL-28 (Melanoma), 48 hours, read-out: Percent viability.
Description: as §1, §2, §3, §4

For a further test, the system named is SK-MEL-5. Kind of test: SRB growth assay, SK-MEL-5. The following applies: Homo sapiens, SK-MEL-5 (Melanoma), 48 hours, read-out: Percent viability.
Description: as §1, §2, §3, §4

For the next test, the system named is UACC-257. Kind of test: SRB growth assay, UACC-257. The following applies: Homo sapiens, UACC-257 (Melanoma), 48 hours, read-out: Percent viability.
Description: as §1, §2, §3, §4

In another test the test system is IGR-OV1. In words: SRB growth assay, IGR-OV1. The following applies: Homo sapiens, IGROV-1, IGR-OV1 (Ovarian), 48 hours, read-out: Percent viability.
Description: as §1, §2, §3, §4

Another test deals with OVCAR-3. In words: SRB growth assay, OVCAR-3. The following applies: Homo sapiens, OVCAR-3 (Ovarian), 48 hours, read-out: Percent viability.
Description: as §1, §2, §3, §4

A further test concerns OVCAR-5. In words: SRB growth assay, OVCAR-5. The following applies: Homo sapiens, OVCAR-5 (Ovarian), 48 hours, read-out: Percent viability.
Description: as §1, §2, §3, §4

Another test relates to A498. In words: SRB growth assay, A498. The following applies: Homo sapiens, A498 (Renal), 48 hours, read-out: Percent viability.
Description: as §1, §2, §3, §4

The test system of the next test is SN12C. In words: SRB growth assay, SN12C. The following applies: Homo sapiens, SN12C (Renal), 48 hours, read-out: Percent viability.
Description: as §1, §2, §3, §4

The test system of another test is PC-3. In words: SRB growth assay, PC-3. The following applies: Homo sapiens, PC-3 (Prostate), 48 hours, read-out: Percent viability.
Description: as §1, §2, §3, §4

The test system of another test is MCF7. Kind of test: SRB growth assay, MCF7. The following applies: Homo sapiens, MCF7 (Breast), 48 hours, read-out: Percent viability.
Description: as §1, §2, §3, §4

A further test relates to BT-549. In words: SRB growth assay, BT-549. The following applies: Homo sapiens, BT-549 (Breast), 48 hours, read-out: Percent viability.
Description: as §1, §2, §3, §4

For `COc1cccc2c1C(=O)c1c(O)c3c(c(O)c1C2=O)C[C@@](O)(C(=O)CO)C[C@@H]3O[C@H]1C[C@H](N)[C@H](O)[C@H](C)O1` [Doxorubicin, reference compound], the viability (as a rule, a read-out of living cells in per cent, often relative to untreated cells) at 10 µM in the test with CCRF-CEM amounted to 43.6%; in the test on HL-60(TB), 25%; in the test with RPMI-8226 it was 44.2%; with A549, 86.8%; in the test with EKVX, 35.5%; in the test with NCI-H460, 35%. Also, the viability at 10 µM was 20.9% in the test with HCC-2998; 31.1% in the test with HCT-15; 19% with SW-620; 24.4% in the test on LOX IMVI; 25.5% with M14; 17.4% with MDA-MB-435. For the same molecule, the viability at 10 µM with SK-MEL-28 was found to be 29.7%; with SK-MEL-5, 7.01%; in the test on UACC-257 it was 100%; with IGR-OV1, 8.63%; in the test with OVCAR-3, 16.8%; in the test with OVCAR-5, 57.1%. For the same molecule, the viability at 10 µM with A498 was found to be 62.9%; in the test with SN12C, 45.4%; in the test on PC-3 it was 50%; with MCF7 it was 69.1%; with BT-549, 62.5%.
On to `FC(F)(F)c1cn(CC2CCNCC2)c2ncnc(Cl)c12` [NUCC-0000381], for which the viability at 10 µM with CCRF-CEM was 52.8%; in the test on HL-60(TB), 25.8%; in the test with RPMI-8226 it was 100%; with A549 it was 28.2%; with EKVX it was 57.5%; in the test with NCI-H460, 26.4%. Further, the viability at 10 µM in the test on HCC-2998 worked out at 93.5%; in the test on HCT-15, 40.4%; with SW-620, 27.2%; in the test on LOX IMVI, 26%; with M14, 96.2%; in the test on MDA-MB-435 it was 65.5%. For the same molecule, the viability at 10 µM in the test with SK-MEL-28 was determined as 93.3%; with SK-MEL-5 it was 100%; in the test with UACC-257, 87.2%; in the test with IGR-OV1, 36.9%; in the test on OVCAR-3, 48.7%; in the test with OVCAR-5 it was 76.8%. Besides, the viability at 10 µM amounted to 93.8% in the test on A498; 42.1% in the test on SN12C; 8.43% with PC-3; 89.8% in the test with MCF7; 103% in the test on BT-549.
Take `CS(=O)(=O)N1CCC(Cn2cc(C(F)(F)F)c3c(Cl)ncnc32)CC1` [NUCC-0000383]: the viability at 10 µM was 54% in the test with CCRF-CEM; 22.5% in the test with HL-60(TB); 100% in the test with RPMI-8226; 100% in the test on A549; 84.6% with EKVX; 69.1% in the test with NCI-H460. Further, the viability at 10 µM with HCC-2998 is 73.2%; in the test on HCT-15 it was 38.8%; with SW-620, 25.7%; in the test on LOX IMVI, 35.8%; in the test on M14 it was 78.5%; in the test with MDA-MB-435, 46.6%. In addition, the viability at 10 µM is 4.54% with SK-MEL-28; 6.11% with SK-MEL-5; 74.7% in the test with UACC-257; 77.5% with IGR-OV1; 95.5% in the test on OVCAR-3; 104% in the test on OVCAR-5. For the same molecule, the viability at 10 µM was determined as 101% in the test on A498; 25.8% in the test with SN12C; 3.55% with PC-3; 108% in the test on MCF7; 79.2% in the test with BT-549.
